This is an account of results in ChEMBL document CHEMBL1141741, “Coluteol and Colutequinone B, More Antifungal Isoflavonoids from Colutea arborescens” (1998).

The assay concerns Saccharomyces cerevisiae. The assay can be described thus: Antimicrobial activity against Saccharomyces cerevisiae. The assay is classed as functional.

For orientation: MIC means the smallest concentration in the dilution series that meets the test's criterion for growth inhibition. Turning to NYSTATIN, the MIC was below 5 µg/mL.
`COc1ccc2c(c1)OC[C@@H](c1cc(O)c(OC)c(O)c1OC)C2` [R-COLUTEOL] gave an MIC below 100 µg/mL.
The value for `COC1=CC(=O)C([C@@H]2COc3cc(OC)ccc3C2)=C(OC)C1=O` [COLUTEQUINONE B] was below 50 µg/mL; that for `COC1=C(OC)C(=O)C([C@@H]2COc3cc(OC)ccc3C2)=CC1=O` [COLUTEQUINONE A] was below 50 µg/mL.
